# From patent publication US6162875A, “Low nitrosamine systems for rubber vulcanization” (Robinson Brothers Limited, priority 1992, dated 2000)
# Columns and labels:
# [1] = tested on: bacterial strains TA 1535, TA 1537, TA 1538, TA 98 and TA 100; experiment: Ames test for mutagenicity, revertant colony counts; details: 50, 150, 500, 1500, 5000 μg/plate, with and without metabolic activation, five strains
# [2] = tested on: bacterial strains TA 1535, TA 1537, TA 1538, TA 98 and TA 100; experiment: Preliminary test for toxicity to the bacterial strains (Ames test); details: for precipitates observed: 5000 μg dose, all strains
Molecule,increase of revertant colony counts over control values [1],precipitates observed [2],toxicity to the bacterial strains ([2]; doses up to and including 5000 μg/plate),mutagenic to TA 1535 (TA 1535),mutagenic to TA 100 (TA 100)
N-nitrosodiisononylamine,no increase of revertant colony counts over control values,,,,
zinc diisononyldithiocarbamate [Example 1],no increase of revertant colony counts over control values,precipitates were observed,,,
O=NN(Cc1ccccc1)Cc1ccccc1 [N-nitrosodibenzylamine],no increase of revertant colony counts over control values,precipitates were observed,non-toxic,,
CN(C)N=O [dimethylnitrosamine],,,,mutagenic,mutagenic
